ChEMBL document CHEMBL1201861, “Genomics of Drug Sensitity in Cancer screening data, Wellcome Trust Sanger Institute”

Tests used:
Experiment in all cases: cells
[1] = system: K052; type: functional, cell-based, Homo sapiens;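 further: Read-out from a cell viability assay, IC50 reflecting suppression of K052 cell growth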
Description: SANGER: Inhibition of human K052 cell growth in a cell viability assay.

[2] = system: SW626; type: functional, cell-based, Homo sapiens;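 further: growth inhibition of SW626 cells, measured with a cell viability assay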
Description: SANGER: Inhibition of human SW626 cell growth in a cell viability assay.

[3] = system: BC-3; type: functional, cell-based, Homo sapiens;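 further: cell viability assay measuring growth inhibition of human BC-3 cells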
Description: SANGER: Inhibition of human BC-3 cell growth in a cell viability assay.

[4] = system: LU-99A; type: functional, cell-based, Homo sapiens;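 further: growth inhibition of LU-99A cells, read out with a cell viability assay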
Description: SANGER: Inhibition of human LU-99A cell growth in a cell viability assay.

[5] = system: SN12C; type: functional, cell-based, Homo sapiens;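 further: growth inhibition of human SN12C cells, measured by a cell viability assay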
Description: SANGER: Inhibition of human SN12C cell growth in a cell viability assay.

[6] = system: SF-295; type: functional, cell-based, Homo sapiens;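 further: growth inhibition of SF-295 cells, read out with a cell viability assay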
Description: SANGER: Inhibition of human SF295 cell growth in a cell viability assay.

[7] = system: NCI-H358; type: functional, cell-based, Homo sapiens;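 further: growth inhibition of NCI-H358 human cells, read out with a cell viability assay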
Description: SANGER: Inhibition of human NCI-H358 cell growth in a cell viability assay.

[8] = system: MKN-7; type: functional, cell-based, Homo sapiens;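 further: growth inhibition of MKN-7 cells, read out with a cell viability assay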
Description: SANGER: Inhibition of human MKN7 cell growth in a cell viability assay.

[9] = system: HT55; type: functional, cell-based, Homo sapiens;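 further: cell viability readout measuring growth inhibition of human HT55 cells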
Description: SANGER: Inhibition of human HT55 cell growth in a cell viability assay.

[10] = system: PANC-08-13; type: functional, cell-based, Homo sapiens;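 further: cell growth inhibition, measured with a cell viability assay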
Description: SANGER: Inhibition of human PANC-08-13 cell growth in a cell viability assay.

[11] = system: Raji; type: functional, cell-based, Homo sapiens;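 further: cell viability assay measuring inhibition of Raji cell growth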
Description: SANGER: Inhibition of human Raji cell growth in a cell viability assay.

[12] = system: Daoy; type: functional, cell-based, Homo sapiens;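 further: daoy cell growth inhibition, read out as cell viability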
Description: SANGER: Inhibition of human Daoy cell growth in a cell viability assay.

[13] = system: BHY; type: functional, cell-based, Homo sapiens;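 further: cell growth inhibition read out by a viability assay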
Description: SANGER: Inhibition of human BHY cell growth in a cell viability assay.

[14] = system: Capan-2; type: functional, cell-based, Homo sapiens;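 further: Capan-2 cell growth inhibition, read out with a viability assay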
Description: SANGER: Inhibition of human Capan-2 cell growth in a cell viability assay.

[15] = system: NCI-H1694; type: functional, cell-based, Homo sapiens;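 further: cell viability assay measuring inhibition of growth in human NCI-H1694 cells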
Description: SANGER: Inhibition of human NCI-H1694 cell growth in a cell viability assay.

[16] = system: A-427; type: functional, cell-based, Homo sapiens;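 further: growth inhibition of human A-427 cells, read out by a cell viability assay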
Description: SANGER: Inhibition of human A427 cell growth in a cell viability assay.

[17] = system: NCI-H748; type: functional, cell-based, Homo sapiens;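 further: growth inhibition of NCI-H748 cells, measured by a cell viability assay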
Description: SANGER: Inhibition of human NCI-H748 cell growth in a cell viability assay.

[18] = system: CAL-33; type: functional, cell-based, Homo sapiens;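 further: growth inhibition of CAL-33 cells, read out with a cell viability assay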
Description: SANGER: Inhibition of human CAL-33 cell growth in a cell viability assay.

[19] = system: HMV-2 cell line; type: functional, cell-based, Homo sapiens;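 further: growth inhibition of HMV-II cells, read out with a cell viability assay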
Description: SANGER: Inhibition of human HMV-II cell growth in a cell viability assay.

[20] = system: SK-MM-2; type: functional, cell-based, Homo sapiens;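 further: growth inhibition of human SK-MM-2 cells, read out with a cell viability assay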
Description: SANGER: Inhibition of human SK-MM-2 cell growth in a cell viability assay.

[21] = system: G-361; type: functional, cell-based, Homo sapiens
[22] = system: OVCAR-5; type: functional, cell-based, Homo sapiens;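 further: growth inhibition of human OVCAR-5 cells, read out with a cell viability assay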
Description: SANGER: Inhibition of human OVCAR-5 cell growth in a cell viability assay.

[23] = system: SK-HEP1; type: functional, cell-based, Homo sapiens, SK-HEP-1;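 further: cell viability readout used to quantify reduction in proliferation of human SK-HEP-1 cells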
Description: SANGER: Inhibition of human SK-HEP-1 cell growth in a cell viability assay.

[24] = system: RMG-I; type: functional, cell-based, Homo sapiens;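 further: growth inhibition of human RMG-I cells, read out with a cell viability assay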
Description: SANGER: Inhibition of human RMG-I cell growth in a cell viability assay.

[25] = system: EFO-27; type: functional, cell-based, Homo sapiens;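 further: growth inhibition of EFO-27 cells, read out with a cell viability assay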
Description: SANGER: Inhibition of human EFO-27 cell growth in a cell viability assay.

[26] = system: MKN-1; type: functional, cell-based, Homo sapiens;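 further: growth inhibition of human MKN1 cells, read out by a cell viability measurement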
Description: SANGER: Inhibition of human MKN1 cell growth in a cell viability assay.

[27] = system: 23132-87; type: functional, cell-based, Homo sapiens
Description: SANGER: Inhibition of human 23132-87 cell growth in a cell viability assay.

[28] = system: SW948; type: functional, cell-based, Homo sapiens;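 further: growth inhibition of SW948 cells, read out with a cell viability assay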
Description: SANGER: Inhibition of human SW948 cell growth in a cell viability assay.

[29] = system: U-118-MG; type: functional, cell-based, Homo sapiens
Description: SANGER: Inhibition of human U-118-MG cell growth in a cell viability assay.

[30] = system: NCI-H1436; type: functional, cell-based, Homo sapiens;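 further: growth suppression of human NCI-H1436 cells, determined with a cell viability readout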
Description: SANGER: Inhibition of human NCI-H1436 cell growth in a cell viability assay.

[31] = system: TCC-SUP; type: functional, cell-based, Homo sapiens;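 further: growth inhibition of TCC-SUP cells, read out with a cell viability assay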
Description: SANGER: Inhibition of human TCCSUP cell growth in a cell viability assay.

[32] = system: IGROV-1; type: functional, cell-based, Homo sapiens;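 further: reduction of IGROV-1 cell growth, read out with a viability assay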
Description: SANGER: Inhibition of human IGROV-1 cell growth in a cell viability assay.

[33] = system: CAL-12T; type: functional, cell-based, Homo sapiens;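 further: growth inhibition of human CAL-12T cells, read out with a cell viability assay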
Description: SANGER: Inhibition of human CAL-12T cell growth in a cell viability assay.

[34] = system: G-402; type: functional, cell-based, Homo sapiens
Description: SANGER: Inhibition of human G-402 cell growth in a cell viability assay.

[35] = system: C32; type: functional, cell-based, Homo sapiens;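 further: cell viability assay, with IC50 reflecting inhibition of C32 cell growth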
Description: SANGER: Inhibition of human C32 cell growth in a cell viability assay.

[36] = system: HuCCT-1; type: functional, cell-based, Homo sapiens, HuCCT1;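 further: growth inhibition of HuCCT-1 cells, read out by a cell viability assay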
Description: SANGER: Inhibition of human HuCCT1 cell growth in a cell viability assay.

[37] = system: CMK; type: functional, cell-based, Homo sapiens;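 further: growth inhibition of CMK cells, read out as cell viability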
Description: SANGER: Inhibition of human CMK cell growth in a cell viability assay.

[38] = system: LC4-1; type: functional, cell-based, Homo sapiens;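 further: growth inhibition of LC4-1 cells, read out with a cell viability assay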
Description: SANGER: Inhibition of human LC4-1 cell growth in a cell viability assay.

[39] = system: BFTC-909; type: functional, cell-based, Homo sapiens
Description: SANGER: Inhibition of human BFTC-909 cell growth in a cell viability assay.

[40] = system: NCI-H810; type: functional, cell-based, Homo sapiens;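 further: IC50 reflects inhibition of cancer cell line growth, read out with a cell viability assay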
Description: SANGER: Inhibition of human NCI-H810 cell growth in a cell viability assay.

[41] = system: MHH-CALL-2; type: functional, cell-based, Homo sapiens;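 further: growth inhibition of the cell line, read out in a cell viability assay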
Description: SANGER: Inhibition of human MHH-CALL-2 cell growth in a cell viability assay.

[42] = system: NCI-H2452; type: functional, cell-based, Homo sapiens;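 further: growth inhibition of NCI-H2452 cells, read out with a cell viability assay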
Description: SANGER: Inhibition of human NCI-H2452 cell growth in a cell viability assay.

[43] = system: WM-115; type: functional, cell-based, Homo sapiens
Description: SANGER: Inhibition of human WM-115 cell growth in a cell viability assay.

[44] = system: A673; type: functional, cell-based, Homo sapiens;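 further: growth inhibition of human A673 cells, read out through a cell viability assay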
Description: SANGER: Inhibition of human A673 cell growth in a cell viability assay.

COc1cccc2c1C(=O)c1c(O)c3c(c(O)c1C2=O)C[C@@](O)(C(=O)CO)C[C@@H]3O[C@H]1C[C@H](N)[C@H](O)[C@H](C)O1 [DOXORUBICIN]
IC50 ([1]; Homo sapiens, K052): > 1.02 µM | IC50 ([2]; Homo sapiens, SW626): 0.112 µM | IC50 ([3]; Homo sapiens, BC-3): 0.166 µM | IC50 ([4]; Homo sapiens, LU-99A): 0.147 µM | IC50 ([5]; Homo sapiens, SN12C): 0.395 µM | IC50 ([6]; Homo sapiens, SF-295): 0.0491 µM | IC50 ([7]; Homo sapiens, NCI-H358): 0.0411 µM | IC50 ([8]; Homo sapiens, MKN-7): 0.69 µM | IC50 ([9]; Homo sapiens, HT55): > 1.02 µM | IC50 ([10]; Homo sapiens, PANC-08-13): > 1.02 µM | IC50 ([11]; Homo sapiens, Raji): 0.335 µM | IC50 ([12]; Homo sapiens, Daoy): 0.00807 µM | IC50 ([13]; Homo sapiens, BHY): 0.0289 µM | IC50 ([14]; Homo sapiens, Capan-2): 0.898 µM | IC50 ([15]; Homo sapiens, NCI-H1694): 0.2 µM | IC50 ([16]; Homo sapiens, A-427): 0.0118 µM | IC50 ([17]; Homo sapiens, NCI-H748): 0.147 µM | IC50 ([18]; Homo sapiens, CAL-33): 0.0679 µM | IC50 ([19]; Homo sapiens, HMV-2): 0.0226 µM | IC50 ([20]; Homo sapiens, SK-MM-2): 0.942 µM | IC50 ([21]; Homo sapiens, G-361): 0.0279 µM | IC50 ([22]; Homo sapiens, OVCAR-5): 0.117 µM | IC50 ([23]; Homo sapiens, SK-HEP1): 0.0259 µM | IC50 ([24]; Homo sapiens, RMG-I): 0.514 µM | IC50 ([25]; Homo sapiens, EFO-27): 0.0974 µM | IC50 ([26]; Homo sapiens, MKN-1): 0.00986 µM | IC50 ([27]; Homo sapiens): 0.0154 µM | IC50 ([28]; Homo sapiens, SW948): > 1.02 µM | IC50 ([29]; Homo sapiens, U-118-MG): 0.856 µM | IC50 ([30]; Homo sapiens, NCI-H1436): > 1.02 µM | IC50 ([31]; Homo sapiens, TCC-SUP): > 1.02 µM | IC50 ([32]; Homo sapiens, IGROV-1): 0.0072 µM | IC50 ([33]; Homo sapiens, CAL-12T): 0.0206 µM | IC50 ([34]; Homo sapiens, G-402): 0.0991 µM | IC50 ([35]; Homo sapiens, C32): > 1.02 µM | IC50 ([36]; Homo sapiens, HuCCT-1): 0.0729 µM | IC50 ([37]; Homo sapiens, CMK): 0.0774 µM | IC50 ([38]; Homo sapiens, LC4-1): 0.241 µM | IC50 ([39]; Homo sapiens, BFTC-909): 0.118 µM | IC50 ([40]; Homo sapiens, NCI-H810): 0.0188 µM | IC50 ([41]; Homo sapiens, MHH-CALL-2): 0.359 µM | IC50 ([42]; Homo sapiens, NCI-H2452): > 1.02 µM | IC50 ([43]; Homo sapiens, WM-115): > 1.02 µM | IC50 ([44]; Homo sapiens, A673): 0.216 µM

BLEOMYCIN
IC50 ([1]; k052): 482 µM | IC50 ([2]; sw626): 1.41 µM | IC50 ([3]; bc-3): 0.521 µM | IC50 ([4]; lu-99a): 0.00422 µM | IC50 ([5]; sn12c): 315 µM | IC50 ([6]; sf-295): 0.0214 µM | IC50 ([7]; nci-h358): 0.373 µM | IC50 ([8]; mkn-7): 66.5 µM | IC50 ([9]; ht55): 1040 µM | IC50 ([10]; panc-08-13): 12.1 µM | IC50 ([11]; raji): 1.85 µM | IC50 ([12]; daoy): 0.083 µM | IC50 ([13]; bhy): 1.83 µM | IC50 ([14]; capan-2): 24.2 µM | IC50 ([15]; nci-h1694): 43.9 µM | IC50 ([16]; a-427): 0.000118 µM | IC50 ([17]; nci-h748): 75.2 µM | IC50 ([18]; cal-33): 2.15 µM | IC50 ([19]; hmv-2): 0.0697 µM | IC50 ([20]; sk-mm-2): 23.2 µM | IC50 ([21]; g-361): 0.0883 µM | IC50 ([22]; ovcar-5): 4.75 µM | IC50 ([23]; sk-hep-1): 0.415 µM | IC50 ([24]; rmg-i): 0.000132 µM | IC50 ([25]; efo-27): 0.571 µM | IC50 ([26]; mkn-1): 0.0796 µM | IC50 [27]: 0.131 µM | IC50 ([28]; sw948): 354 µM | IC50 ([29]; u-118-mg): 65.7 µM | IC50 ([30]; nci-h1436): 2770 µM | IC50 ([31]; tcc-sup): 15.9 µM | IC50 ([32]; igrov-1): 0.145 µM | IC50 ([33]; cal-12t): 0.259 µM | IC50 ([34]; g-402): 0.0765 µM | IC50 ([35]; c32): 471 µM | IC50 ([36]; hucct1): 10.9 µM | IC50 ([37]; cmk): 14.8 µM | IC50 ([38]; lc4-1): 11.2 µM | IC50 ([39]; bftc-909): 0.0138 µM | IC50 ([40]; nci-h810): 55.1 µM | IC50 ([41]; mhh-call-2): 0.535 µM | IC50 ([42]; nci-h2452): 2140 µM | IC50 ([43]; wm-115): 7.09 µM | IC50 ([44]; a673): 10.5 µM

O=C(O)c1ccc(-c2c[nH]c3ncc(-c4ccccc4)cc23)cc1C1CCCC1 [GSK-650394]
IC50 ([1]; Homo sapiens, K052): > 16 µM | IC50 ([2]; Homo sapiens, SW626): > 16 µM | IC50 ([3]; Homo sapiens, BC-3): 1.87 µM | IC50 ([4]; Homo sapiens, LU-99A): > 16 µM | IC50 ([5]; Homo sapiens, SN12C): > 16 µM | IC50 ([6]; Homo sapiens, SF-295): 7.6 µM | IC50 ([7]; Homo sapiens, NCI-H358): 6.25 µM | IC50 ([8]; Homo sapiens, MKN-7): > 16 µM | IC50 ([9]; Homo sapiens, HT55): > 16 µM | IC50 ([10]; Homo sapiens, PANC-08-13): > 16 µM | IC50 ([11]; Homo sapiens, Raji): > 16 µM | IC50 ([12]; Homo sapiens, Daoy): 0.515 µM | IC50 ([13]; Homo sapiens, BHY): 4.92 µM | IC50 ([14]; Homo sapiens, Capan-2): > 16 µM | IC50 ([15]; Homo sapiens, NCI-H1694): > 16 µM | IC50 ([16]; Homo sapiens, A-427): 1.88 µM | IC50 ([17]; Homo sapiens, NCI-H748): > 16 µM | IC50 ([18]; Homo sapiens, CAL-33): 9.96 µM | IC50 ([19]; Homo sapiens, HMV-2): 7.51 µM | IC50 ([20]; Homo sapiens, SK-MM-2): > 16 µM | IC50 ([21]; Homo sapiens, G-361): 3.72 µM | IC50 ([22]; Homo sapiens, OVCAR-5): > 16 µM | IC50 ([23]; Homo sapiens, SK-HEP1): 6.34 µM | IC50 ([24]; Homo sapiens, RMG-I): > 16 µM | IC50 ([25]; Homo sapiens, EFO-27): 15.4 µM | IC50 ([26]; Homo sapiens, MKN-1): 9.19 µM | IC50 ([27]; Homo sapiens): 10.3 µM | IC50 ([28]; Homo sapiens, SW948): > 16 µM | IC50 ([29]; Homo sapiens, U-118-MG): > 16 µM | IC50 ([30]; Homo sapiens, NCI-H1436): > 16 µM | IC50 ([31]; Homo sapiens, TCC-SUP): > 16 µM | IC50 ([32]; Homo sapiens, IGROV-1): 5.29 µM | IC50 ([33]; Homo sapiens, CAL-12T): 2.71 µM | IC50 ([34]; Homo sapiens, G-402): 9.13 µM | IC50 ([35]; Homo sapiens, C32): > 16 µM | IC50 ([36]; Homo sapiens, HuCCT-1): > 16 µM | IC50 ([37]; Homo sapiens, CMK): 8.25 µM | IC50 ([38]; Homo sapiens, LC4-1): > 16 µM | IC50 ([39]; Homo sapiens, BFTC-909): 14.6 µM | IC50 ([40]; Homo sapiens, NCI-H810): > 16 µM | IC50 ([41]; Homo sapiens, MHH-CALL-2): > 16 µM | IC50 ([42]; Homo sapiens, NCI-H2452): > 16 µM | IC50 ([43]; Homo sapiens, WM-115): > 16 µM | IC50 ([44]; Homo sapiens, A673): > 16 µM
